Experimental data: ChEMBL document CHEMBL1122691, “Development of an affinity ligand for purification of alpha 2-adrenoceptors from human platelet membranes” (J Med Chem, 1984)

Assays:
[1] = biological target: T1, Adrenergic receptor alpha-2 (Homo sapiens, UniProt P08913+P18825+P18089); test: Binding affinity against alpha-2-adrenergic receptor using 10 nM [3H]yohimbine in preparations in human platelet membranes from three separate experiments using 10 inhibitor concentrations; format: cell membranes
T1 sequence (P08913 whole entry): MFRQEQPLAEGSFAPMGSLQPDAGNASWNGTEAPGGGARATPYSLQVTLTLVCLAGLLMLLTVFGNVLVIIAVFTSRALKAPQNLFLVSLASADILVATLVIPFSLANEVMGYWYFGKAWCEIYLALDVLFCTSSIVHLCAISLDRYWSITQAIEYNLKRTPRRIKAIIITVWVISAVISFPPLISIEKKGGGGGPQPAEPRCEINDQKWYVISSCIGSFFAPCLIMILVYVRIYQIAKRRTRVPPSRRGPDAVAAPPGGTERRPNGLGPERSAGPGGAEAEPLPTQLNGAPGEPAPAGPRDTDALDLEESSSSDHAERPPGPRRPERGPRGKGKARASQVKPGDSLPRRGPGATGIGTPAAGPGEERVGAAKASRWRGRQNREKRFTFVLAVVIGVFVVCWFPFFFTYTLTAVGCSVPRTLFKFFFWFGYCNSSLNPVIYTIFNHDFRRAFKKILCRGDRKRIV
T1 sequence (P18825 whole entry): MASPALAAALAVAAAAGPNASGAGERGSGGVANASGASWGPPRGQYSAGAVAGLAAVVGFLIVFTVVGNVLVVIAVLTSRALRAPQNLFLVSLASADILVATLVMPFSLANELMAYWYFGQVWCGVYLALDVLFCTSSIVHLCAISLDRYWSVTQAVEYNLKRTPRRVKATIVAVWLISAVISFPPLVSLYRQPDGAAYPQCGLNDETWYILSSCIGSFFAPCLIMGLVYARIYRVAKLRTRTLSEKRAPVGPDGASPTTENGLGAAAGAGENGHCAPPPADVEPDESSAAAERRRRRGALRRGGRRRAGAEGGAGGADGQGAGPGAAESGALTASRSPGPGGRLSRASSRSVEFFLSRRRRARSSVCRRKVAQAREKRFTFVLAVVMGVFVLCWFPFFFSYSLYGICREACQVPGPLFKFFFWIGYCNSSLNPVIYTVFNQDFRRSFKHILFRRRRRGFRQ
T1 sequence (P18089 whole entry): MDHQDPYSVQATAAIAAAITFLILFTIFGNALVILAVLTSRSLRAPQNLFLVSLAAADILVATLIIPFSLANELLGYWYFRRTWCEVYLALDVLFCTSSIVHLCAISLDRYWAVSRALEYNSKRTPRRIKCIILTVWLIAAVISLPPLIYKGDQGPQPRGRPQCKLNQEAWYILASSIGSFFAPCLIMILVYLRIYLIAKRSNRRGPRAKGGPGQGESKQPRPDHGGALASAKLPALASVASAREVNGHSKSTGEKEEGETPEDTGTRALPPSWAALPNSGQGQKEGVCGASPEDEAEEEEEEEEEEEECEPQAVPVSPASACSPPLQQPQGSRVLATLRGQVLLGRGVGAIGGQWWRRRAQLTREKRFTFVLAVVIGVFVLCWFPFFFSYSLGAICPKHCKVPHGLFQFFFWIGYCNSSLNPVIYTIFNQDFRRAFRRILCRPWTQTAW

[2] = biological target: T1, Adrenergic receptor alpha-2; test: Binding affinity against alpha-2-adrenergic receptor using 10 nM [3H]yohimbine in human platelet membranes from four to five separate experiments using 12 inhibitor concentrations; format: cell membranes
[3] = system: Adrenergic receptor alpha-2 (Cavia porcellus); details: Cardiac atrium
[4] = biological target: T1, Adrenergic receptor alpha-2; format: cell membranes

Row | Structure (SMILES) | Ki [1] [nM] | Ki [2] [nM] | K beta [3] [nM] | Ki [4] [nM]
1 | C=CCOc1ccc2c(c1)CCNCC2 | 232 |  |  | 
2 | C=CCOc1ccc(Cl)c2c1CCN(C)CC2 |  | 48 | 150 | 
3 | C=CCN1CCc2cccc(Cl)c2CC1 |  |  | 60 | 6.1
4 | C=CCOc1cccc2c1CCN(C)CC2 |  |  | 206 | 338
